From the supplement of paper PMC11061612

Columns and labels:
Test in all cases: Bliss excess, mean over the matrix (fraction); higher = more synergy
[1] = system: NCI-H69 (Small Cell Lung Carcinoma)
How it was run: (§1)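 Bliss excess equals the observed combination effect minus the expected value EA + EB − EA·EB, where EA and EB are the effects of each agent alone. Combination Emax is the second-highest inhibition within the matrix. Inhibition was scaled from CellTiter-Glo 2.0 luminescence, with 0 set by vehicle wells and 1 by blank wells, after 72 hours of two-drug dosing of cells plated in 1536-well plates.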

[2] = system: CAL-51 (Breast Carcinoma)
How it was run: as §1

[3] = system: KARPAS-231 (B-Cell Non-Hodgkin's Lymphoma)
How it was run: as §1

[4] = system: SK-OV-3 (Ovarian Carcinoma)
How it was run: as §1

[5] = system: CAL-54 (Kidney Carcinoma)
How it was run: as §1

[6] = system: PCI-30 (Head and Neck Carcinoma)
How it was run: as §1

[7] = system: EN (Endometrial Carcinoma)
How it was run: as §1

[8] = system: CTB-1 (B-Cell Non-Hodgkin's Lymphoma)
How it was run: as §1

COLO-829 (Melanoma) = system: COLO-829 (Melanoma)
How it was run: as §1

[9] = system: 8305C (Thyroid Gland Carcinoma)
How it was run: as §1

[10] = system: RPMI-6666 (Non-Cancerous)
How it was run: as §1

[11] = system: CAPAN-1 (Pancreatic Carcinoma)
How it was run: as §1

[12] = system: MDA-MB-468 (Breast Carcinoma)
How it was run: as §1

[13] = system: SW1271 (Small Cell Lung Carcinoma)
How it was run: as §1

[14] = system: NCI-H747 (Colorectal Carcinoma)
How it was run: as §1

[15] = system: SW626 (Colorectal Carcinoma)
How it was run: as §1

NCI-H2795 (Mesothelioma) = system: NCI-H2795 (Mesothelioma)
How it was run: as §1

[16] = system: KYSE-410 (Esophageal Squamous Cell Carcinoma)
How it was run: as §1

SH-4 (Melanoma) = system: SH-4 (Melanoma)
How it was run: as §1

[17] = system: LB771-HNC (Head and Neck Carcinoma)
How it was run: as §1

SMILES	Bliss excess [1]	Bliss excess [2]	Bliss excess [3]	Bliss excess [4]	Bliss excess [5]	Bliss excess [6]	Bliss excess [7]	Bliss excess [8]	Bliss excess (COLO-829 (Melanoma))	Bliss excess [9]	Bliss excess [10]	Bliss excess [11]	Bliss excess [12]	Bliss excess [13]	Bliss excess [14]	Bliss excess [15]	Bliss excess (NCI-H2795 (Mesothelioma))	Bliss excess [16]	Bliss excess (SH-4 (Melanoma))	Bliss excess [17]
Cc1cc2ncnn2cc1Nc1ncc2c(n1)n(C1CCOCC1)c(=O)n2C [AZD7648] + CN(C)CCCOc1ccc(-c2ccc3ncc4c(c3c2)n(C2CCOCC2)c(=O)n4C)cn1 [AZD0156] (first compound max 10 µM, 7x7, partner max 1 µM)	-0.044	-0.0198	0.0157	-0.0289	-0.0384	-0.0411	-0.0396	-0.0485	-0.0203	-0.061	-0.101	-0.0201	0.0032	0.0567	0.0253	0.0225	-0.025	-0.0059	0.0077	0.0059
CN(CCO)CC[C@H](CSc1ccccc1)Nc1ccc(S(=O)(=O)NC(=O)c2ccc(N3CCC([C@@H](O)c4ccccc4-c4ccc(Cl)cc4)CC3)cc2)cc1S(=O)(=O)C(F)(F)F [AZD4320] + CCN(CCO)CCCOc1ccc2c(Nc3cc(CC(=O)Nc4cccc(F)c4)[nH]n3)ncnc2c1 [AZD2811] (first compound max 1 µM, 7x7, partner max 1 µM)	0.035	0.0881	0.0493	-0.0522	-0.0406	-0.0085	-0.0073	-0.0596	-0.0465	0.0076	0.17	-0.0309	0.0461	-0.0428	-0.0558	0.0278	0.0386	-0.0437	-0.0236	-0.0227
Cc1c2c(nn1C)CSCc1cc(n(C)n1)CSc1cc(c3ccccc3c1)OCCCc1c(C(=O)O)n(C)c3c-2c(Cl)ccc13 [AZD5991] + C1CN(CCC1(C(=O)N[C@@H](CCO)C2=CC=C(C=C2)Cl)N)C3=NC=NC4=C3C=CN4 [Capivasertib] (first compound max 1 µM, 7x7, partner max 3 µM)	-0.026	0.0392	-0.0402	-0.0065	0.0428	0.0204	-0.0547	-0.0048	-0.0212	0.0008	0.0216	-0.0318	0.0256	-0.0664	0.0106	-0.018	0.119	-0.0218	-0.0029	0.0612
CCN(CCO)CCCOc1ccc2c(Nc3cc(CC(=O)Nc4cccc(F)c4)[nH]n3)ncnc2c1 [AZD2811] + C[C@@H]1COCCN1C2=NC(=NC(=C2)C3(CC3)[S@](=N)(=O)C)C4=C5C=CNC5=NC=C4 [AZD6738] (first compound max 1 µM, 7x7, partner max 10 µM)	-0.0552	0.0075	0.0064	-0.117	-0.0383	-0.0516	-0.0866	-0.0826	-0.0217	-0.0872	-0.0653	-0.0939	-0.0977	-0.0829	-0.044	-0.0724	-0.0517	-0.0514	-0.0474	-0.0492
CC1(C)CCC(CN2CCN(c3ccc(C(=O)NS(=O)(=O)c4ccc(NCC5CCOCC5)c([N+](=O)[O-])c4)c(Oc4cnc5[nH]ccc5c4)c3)CC2)=C(c2ccc(Cl)cc2)C1 [Venetoclax] + CCN(CCO)CCCOc1ccc2c(Nc3cc(CC(=O)Nc4cccc(F)c4)[nH]n3)ncnc2c1 [AZD2811] (first compound max 1 µM, 7x7, partner max 1 µM)	0.0928	0.046	-0.0484	-0.0401	-0.0105	-0.0231	-0.0017	-0.118	-0.0359	-0.0038	0.189	-0.042	-0.086	-0.0483	-0.0429	-0.0394	-0.0581	-0.0234	-0.0115	-0.028
Cc1c2c(nn1C)CSCc1cc(n(C)n1)CSc1cc(c3ccccc3c1)OCCCc1c(C(=O)O)n(C)c3c-2c(Cl)ccc13 [AZD5991] + C[C@@H]1COCCN1C2=NC(=NC(=C2)C3(CC3)[S@](=N)(=O)C)C4=C5C=CNC5=NC=C4 [AZD6738] (first compound max 1 µM, 7x7, partner max 10 µM)	-0.0477	0.0585	0.0252	0.0538	-0.0259	0.0378	-0.0039	-0.0314	0.0471	-0.0605	0.0272	-0.0167	0.0455	0.0121	-0.018	0.0268	0.0835	0.0281	0.0323	0.0599
CC1(C)CCC(CN2CCN(c3ccc(C(=O)NS(=O)(=O)c4ccc(NCC5CCOCC5)c([N+](=O)[O-])c4)c(Oc4cnc5[nH]ccc5c4)c3)CC2)=C(c2ccc(Cl)cc2)C1 [Venetoclax] + COc1cc(Nc2ncc3c(n2)-c2ccc(Cl)cc2C(c2c(F)cccc2OC)=NC3)ccc1C(=O)O [Alisertib] (first compound max 1 µM, 7x7, partner max 10 µM)	0.146	0.0319	0.0566	-0.076	-0.0251	-0.0352	-0.0554	-0.0467	-0.0548	-0.0592	0.0702	-0.0425	0.0409	-0.0222	0.0071	-0.0167	-0.0656	-0.0651	-0.0234	-0.0185
CN(CCO)CC[C@H](CSc1ccccc1)Nc1ccc(S(=O)(=O)NC(=O)c2ccc(N3CCC([C@@H](O)c4ccccc4-c4ccc(Cl)cc4)CC3)cc2)cc1S(=O)(=O)C(F)(F)F [AZD4320] + Cc1cc2ncnn2cc1Nc1ncc2c(n1)n(C1CCOCC1)c(=O)n2C [AZD7648] (first compound max 1 µM, 7x7, partner max 10 µM)	-0.0474	-0.0064	0.036	-0.063	-0.0122	-0.057	-0.01	-0.0401	-0.04	0.0242	0.0311	-0.0508	-0.0012	-0.0386	-0.0192	-0.0526	-0.0395	-0.0406	-0.0459	-0.0395
CC(=O)Nc1cccc(-n2c(=O)n(C3CC3)c(=O)c3c(Nc4ccc(I)cc4F)n(C)c(=O)c(C)c32)c1 [Trametinib] + Cc1nc(-c2cn3c(n2)-c2ccc(-c4cnn(C(C)(C)C(N)=O)c4)cc2OCC3)n(C(C)C)n1 [Taselisib] (first compound max 1 µM, 7x7, partner max 10 µM)	-0.0257	0.0242	-0.0605	0.0582	0.0303	0.0485	0.0161	0.0136	0.234	0.0656	0.0351	0.129	-0.0919	0.0896	-0.0203	0.0644	0.0749	0.168	0.0172	0.125
CN(CCO)CC[C@H](CSc1ccccc1)Nc1ccc(S(=O)(=O)NC(=O)c2ccc(N3CCC([C@@H](O)c4ccccc4-c4ccc(Cl)cc4)CC3)cc2)cc1S(=O)(=O)C(F)(F)F [AZD4320] + CN(C)CCCOc1ccc(-c2ccc3ncc4c(c3c2)n(C2CCOCC2)c(=O)n4C)cn1 [AZD0156] (first compound max 1 µM, 7x7, partner max 1 µM)	-0.0465	-0.034	0.0325	-0.0364	-0.0224	-0.0931	-0.0085	-0.0376	-0.0481	-0.0489	-0.0597	-0.0654	-0.127	-0.0413	-0.0546	-0.0545	-0.0596	-0.0482	-0.0238	-0.0454
Cc1cc2ncnn2cc1Nc1ncc2c(n1)n(C1CCOCC1)c(=O)n2C [AZD7648] + CCN(CCO)CCCOc1ccc2c(Nc3cc(CC(=O)Nc4cccc(F)c4)[nH]n3)ncnc2c1 [AZD2811] (first compound max 10 µM, 7x7, partner max 1 µM)	0.0296	0.076	-0.0041	-0.0193	0.0156	-0.0267	-0.0671	-0.0578	-0.0034	-0.0159	0.036	-0.0304	-0.0442	-0.0081	-0.0205	-0.0688	0.009	-0.0046	-0.0059	0
C=CCn1c(=O)c2cnc(Nc3ccc(N4CCN(C)CC4)cc3)nc2n1-c1cccc(C(C)(C)O)n1 [AZD1775] + C[C@@H]1COCCN1C2=NC(=NC(=C2)C3(CC3)[S@](=N)(=O)C)C4=C5C=CNC5=NC=C4 [AZD6738] (first compound max 1 µM, partner max 10 µM)	0.0962	0.0981	0.0545	-0.0067	-0.0377	0.0406		-0.0464	-0.0194	-0.122	-0.0165	-0.0951	0.0344	-0.0474	-0.0002	0.0354	-0.0134	-0.0061	-0.0746	-0.0057
